Measurements taken from patent US20100261706A1, “SUBSTITUTED TETRACYCLIC 1H-INDENO [1,2-B]PYRIDINE-2(5H)-ONE ANALOGS THEREOF AND USES THEREOF” (INOTEK PHARMACEUTICALS CORPORATION, priority 2008, published 2010).
Where a name gives a salt, the structure may show the parent alone.

System: diabetic rats exhibiting contrast-induced nephropathy
Experiment: Contrast-induced nephropathy (CIN) model in streptozotocin-diabetic rats, contrast agent iomeprol
Type: in vivo, Male Wistar rats
Description: Effect of Tetracyclic 1H-indeno[1,2-b]pyridine-2(5H)-one analogs on the prophylaxis of contrast induced nephropathy
Male Wistar rats (150-200 g; Harlan Nossanr) were housed in a controlled environment and provided with standard rodent chow and water.
After 12 h of fasting, the animals received a single 60 mg/kg intravenous (i.v.) injection of streptozotocin (Sigma, St. Louis, Mo.) in 10 mM sodium citrate buffer, pH 4.5 (see figure showing CIN model). Control non-diabetic animals were fasted and received citrate buffer alone. After 24 h, animals with blood glucose levels greater than 250 mg/dl were considered diabetic. All experiments were performed 10 days following the induction of diabetes. The diabetic state was evaluated daily by determination of the blood glucose levels. Upon the induction of the diabetic state the animals were presenting with a major risk factor pre-disposing the animals to CIN after the administration of contrast media.
10 days following the induction of diabetes the rats were anesthetized with 90 mg/kg ketamine i.m. and 10 mg/kg xylazine i.m. and were treated with the contrast agent iomeprol (10 mL/kg injected via the lateral tail vein) or with 0.9% normal saline. The contrast agent used was the low osmolar non-ionic monomer iomeprol (lomeron, 400 mgI mL−1; Bracco SpA, Milan, Italy) with an osmolality of 726±34 mosmol/kg H2O.
Upon completion of surgical procedures, the animals were randomly allocated to different groups.
At the indicated time point blood samples were collected via the lateral tail vein into S1/3 tubes containing serum gel. The samples were centrifuged (6000 r.p.m. for 3 min) to separate plasma. All plasma samples were analyzed for biochemical parameters within 24 hours after collection. Plasma urea, plasma and urine concentrations of creatinine were measured as indicators of impaired glomerular function. Plasma concentrations of NGAL (neutrophil gelatinase associated lipocalin) levels and urine αGST (alpha glutathione S-transferase)and NGAL levels were evaluated.
At postmortem, a […] section of kidney was removed and placed in formalin and processed through to wax. […] sections were cut and stained with hematoxylin and eosin. Histologic assessment of outer medulla damage was examined by an experienced morphologist, who was not aware of the sample identity. The criteria for injury/necrosis were the following: 0=normal histology; 1=minor edema, minor cell swelling; 2=haemorrhage, moderate edema, moderate cells vacuolization and swelling; 3=moderate haemorrhage, moderate edema, moderate cells vacuolization, swelling and chromatin alteration; 4=severe edema, severe cells vacuolization, swelling and chromatin alteration, presence of necrosis spot; 5=severe edema, severe cells vacuolization, swelling and chromatin alteration, severe necrosis.

O=c1[nH]c2c(c3c1CCCC3)Cc1c(CN3CC[C@H](F)C3)cccc1-2 [Example 17, (S)-10-((3-fluoropyrrolidin-1-yl)methyl)-3,4,6,11-tetrahydro-1H-indeno[1,2-c]isoquinolin-5(2H)-one mesylate]
kidney histological scores (outer medulla damage score 0-5, FIG. 4): reduced
level of plasma creatinine (relative to contrast agent alone, FIG. 1): reduces
level of plasma NGAL (relative to contrast agent alone, FIG. 2): reduces
level of urine NGAL (relative to contrast agent alone, FIG. 3): reduces
level of urine GST (relative to contrast agent alone, FIG. 5): reduces
